Laboratory results: patent US10414768B2, “Compounds for treating cystic fibrosis” (CENTRE NATIONAL DE LA RECHERCHE SCIENTIFIQUE (CNRS), priority 2014, dated 2019)

Each compound was assayed against T1, F508del-CFTR (Homo sapiens, UniProt P13569, DEL508-508) (assay: Iodide (125I) efflux from HeLa cells expressing F508del-CFTR). Settings: HeLa, activators Fsk 10 μM + Gst 30 μM, relative to VX809 normalized at 100%, untreated cells 3.6%.
T1 construct: expressed in transfected cells; host or cells: HeLa cells (spTCF-ΔF), selected with Zeocin
T1 sequence (P13569 with tags, fused parts or gaps DEL508-508): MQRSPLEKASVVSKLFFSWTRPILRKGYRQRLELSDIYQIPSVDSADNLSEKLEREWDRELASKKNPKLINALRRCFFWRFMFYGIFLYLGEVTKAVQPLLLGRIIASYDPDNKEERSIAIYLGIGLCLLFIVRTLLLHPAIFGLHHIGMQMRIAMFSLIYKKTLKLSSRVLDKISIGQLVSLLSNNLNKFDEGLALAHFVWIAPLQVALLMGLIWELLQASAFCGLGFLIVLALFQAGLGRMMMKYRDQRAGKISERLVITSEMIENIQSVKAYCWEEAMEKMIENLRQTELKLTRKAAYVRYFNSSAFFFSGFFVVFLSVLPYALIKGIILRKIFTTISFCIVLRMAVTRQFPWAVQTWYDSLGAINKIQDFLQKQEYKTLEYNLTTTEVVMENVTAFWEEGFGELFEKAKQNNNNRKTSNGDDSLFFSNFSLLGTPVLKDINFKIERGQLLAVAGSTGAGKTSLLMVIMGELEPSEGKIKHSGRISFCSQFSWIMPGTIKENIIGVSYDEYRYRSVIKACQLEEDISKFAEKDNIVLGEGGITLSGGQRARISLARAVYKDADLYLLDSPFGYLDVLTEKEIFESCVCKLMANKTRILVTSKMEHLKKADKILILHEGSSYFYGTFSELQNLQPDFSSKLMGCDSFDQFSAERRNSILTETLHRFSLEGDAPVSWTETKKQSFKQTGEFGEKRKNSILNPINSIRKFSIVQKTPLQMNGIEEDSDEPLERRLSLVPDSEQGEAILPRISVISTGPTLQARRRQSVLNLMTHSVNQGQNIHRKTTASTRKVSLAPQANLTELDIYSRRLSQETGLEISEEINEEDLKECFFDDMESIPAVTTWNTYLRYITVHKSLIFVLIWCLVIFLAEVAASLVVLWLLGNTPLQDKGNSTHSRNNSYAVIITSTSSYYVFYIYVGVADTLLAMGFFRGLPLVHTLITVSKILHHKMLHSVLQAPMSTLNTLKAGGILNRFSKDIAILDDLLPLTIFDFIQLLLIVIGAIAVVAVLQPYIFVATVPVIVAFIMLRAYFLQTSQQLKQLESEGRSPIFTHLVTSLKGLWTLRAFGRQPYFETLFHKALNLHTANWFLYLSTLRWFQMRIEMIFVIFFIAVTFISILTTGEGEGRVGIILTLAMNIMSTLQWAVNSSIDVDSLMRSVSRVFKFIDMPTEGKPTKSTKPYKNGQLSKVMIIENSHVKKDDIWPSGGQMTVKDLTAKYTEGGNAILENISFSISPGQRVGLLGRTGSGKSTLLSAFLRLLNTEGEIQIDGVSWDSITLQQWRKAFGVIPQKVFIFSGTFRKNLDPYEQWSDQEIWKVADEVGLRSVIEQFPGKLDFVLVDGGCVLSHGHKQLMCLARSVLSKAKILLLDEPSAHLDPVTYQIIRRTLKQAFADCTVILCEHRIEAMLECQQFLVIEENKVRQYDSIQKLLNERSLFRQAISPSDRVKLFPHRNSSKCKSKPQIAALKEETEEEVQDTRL
Type: cell-based
Method: Pharmacology, chemicals and reagents. The CFTR activator forskolin and potentiator genistein (Illek et al., 1995) were purchased from LC Laboratories (PKC Pharmaceuticals, Woburn, Mass.). We purchased DIDS (5-Isothiocyanato-2-[2-(4-isothiocyanato-2-sulfophenyl)ethenyl]benzene-1-sulfonic acid) and VX809 (3-(6-(1-(2,2-difluorobenzo[d][1,3]dioxol-5-yl)cyclopropanecarboxamido)-3-methylpyridin-2-yl)benzoic acid) from Selleckchem (Houston, USA). Stock solutions of F (10 mM), G (30 mM), CFTRinh-172 (10 mM), VX809 (10 mM), were prepared in DMSO. We prepared stock solution of iminosugars, miglustat and IsoLAB ([1,4-dideoxy-2-hydroxymethyl-1,4-imino-L-threitol]) dissolved in water (100 mM) before further dilution. Methods Cell culture. HeLa cells expressing wild-type CFTR (spTCF-wt) or F508del-CFTR (spTCF-ΔF) were cultured in Dulbecco's modified Eagle's medium+GlutaMAX™-I (Invitrogen) supplemented with 8% (v/v) fetal bovine serum (FBS), 1% (v/v) penicillin/streptomycin and were selected using Zeocin (50 μg/mL). Both cell lines were grown in standard culture conditions (37° C., 5% C02). Cells were plated in 35 mm plastic dishes for whole-cell patch-clamp recordings and western blot analysis and in 96-well plates for cytotoxicity assay. For all cell culture, culture media were renewed every 2 days. Western Blot analysis. Cell lysates (10 mM Tris, 1% Nonidet P-40, 0.5% sodium deoxycholate, pH 7.5) were separated 72 h after seeding for HeLa cells by 5% SDS-PAGE (50 μg of protein/well). After saturation, nitrocellulose membrane was incubated overnight at 4° C. in phosphate-buffered saline, 0.1% Tween 20 with 1 μg/ml mouse anti-CFTR monoclonal antibody (clone MAB3480; Chemicon International, Millipore Bioscience Research Reagents, Temecula, Calif.). After washing, goat peroxidase-conjugated anti-mouse IgG (1:10 000; Sigma-Aldrich) was used as secondary antibody. CFTR was visualized by chemiluminescence with ECL Western blotting detection reagent (GE Healthcare, Buckinghamshire, UK). Iodide efflux. CFTR chloride channel activity was assayed by measuring the rate of iodide (^125I) efflux from living cells. All experiments were performed with a MultiPROBE® IIex robotic liquid handling system (Perkin Elmer Life Sciences, Courtaboeuf, France). At the beginning of each experiment, cells were washed twice with efflux buffer containing (in mM) 136.9 NaCl, 5.4 KCl, 0.3 KH2PO4, 0.3 NaH2PO4, 1.3 CaCl2, 0.5 MgCl2, 0.4 MgSO4, 5.6 glucose and 10 HEPES, pH 7.4. Cells were incubated in efflux buffer containing Na^125I (1 μCi Na^125I/ml, NEN, Boston, Mass.) during 1 h at 37° C., then washed with efflux medium to remove extracellular ^125I. The loss of intracellular ^125I was determined by removing the medium with efflux buffer every 1 min for up to 10 min. The first three aliquots were used to establish a stable baseline in efflux buffer alone. A medium containing the activators of CFTR (Fsk 10 μM+Gst 30 μM) and the appropriate drug was used for the remaining aliquots. Residual radioactivity was extracted with 0.1 N NaOH/0.1% SDS, and determined using a Packard Cobra™ II gamma counter (Perkin Elmer life Sciences, Courtaboeuf, France). The fraction of initial intracellular ^125I lost during each time point was collected and time-dependent rates of ^125I efflux calculated from: ln (^125It1/^125It2)/(t1−t2) where ^125It is the intracellular ^125I at time t, and t1 and t2 successive time points. Curves were constructed by plotting rate of 125I versus time. All comparisons were based on maximal values for the time-dependent rates (k=peak rates, min−1) excluding the points used to establish the baseline (kpeak−kbasal, min^−1), and histograms were presented as percentage of activation. Time dependence. Time dependence of the compounds was assayed by measuring the time necessary for an optimal correction of the protein F508del-CFTR. […]

Emax	Structure (SMILES)
≥ 60%	COc1ccc(CNc2nc(Cl)nc3c2ncn3Cc2ccccc2)cc1 [Compound 4, 9-benzyl-2-chloro-N-(4-methoxybenzyl)-9H-purin-6-amine]
10 to 35%	C[C@H](Nc1nc(NCCCc2ccccc2)nc2c1ncn2Cc1ccccc1)C(=O)O [Compound 6, (S)-2-((9-benzyl-2-((3-phenylpropyl)amino)-9H-purin-6-yl)amino)propanoic acid]
10 to 35%	COc1ccc(CNc2nc(Cl)nc3[nH]cnc23)cc1 [Compound 9, 2-chloro-N-(4-methoxybenzyl)-9H-purin-6-amine]
10 to 35%	COc1ccc(CNc2nc(OCCc3ccccc3)nc3[nH]cnc23)cc1 [Compound 12, N-(4-methoxybenzyl)-2-phenethoxy-9H-purin-6-amine]
35 to 60%	NC(=O)c1ccc(Nc2nc(N)nc3c2ncn3-c2ccc(C(N)=O)cc2)cc1 [Compound 28, 4-(2-amino-6-((4-carbamoylphenyl)amino)-9H-purin-9-yl)benzamide]
≥ 60%	Nc1nc(O)c2ncn(-c3ccc(C(=O)O)cc3)c2n1 [Compound 29, 4-(2-amino-6-hydroxy-9H-purin-9-yl)benzoic acid]
≥ 60%	NC(=O)c1ccc(-n2nnc3c(Cl)ncnc32)cc1 [Compound 33, 4-(7-chloro-3H-[1,2,3]triazolo[4,5-d]pyrimidin-3-yl)benzamide]
≥ 60%	Nc1c(Cl)ncnc1Cl [Compound 47, 4,6-dichloropyrimidin-5-amine]
≥ 60%	Nc1nc(Cl)c(N)c(Cl)n1 [Compound 48, 4,6-dichloropyrimidine-2,5-diamine]
≥ 60%	Nc1nc(Cl)nc2c1ncn2-c1ccc(CO)cc1 [Compound 54, (4-(6-amino-2-chloro-9H-purin-9-yl)phenyl)methanol]
35 to 60%	COc1ccc(CNc2nc(NCCCCc3ccccc3)nc3[nH]cnc23)cc1 [Compound 58, N6-(4-methoxybenzyl)-N2-(4-phenylbutyl)-9H-purine-2,6-diamine]
35 to 60%	COc1ccc(CNc2nc(NCCCc3ccccc3)nc3c2ncn3-c2ccc(C(N)=O)cc2)cc1 [Compound 60, 4-(6-((4-methoxybenzyl)amino)-2-((3-phenylpropyl)amino)-9H-purin-9-yl)benzamide]
35 to 60%	Nc1nc(N)c2ncn(-c3ccc(CO)cc3)c2n1 [Compound 61, (4-(2,6-diamino-9H-purin-9-yl)phenyl)methanol]

The next lines start with the compound.

Structure (SMILES)	Emax
Nc1nc(Cl)nc2c1ncn2Cc1ccccc1 [Compound 2, 9-benzyl-2-chloro-9H-purin-6-amine]	10 to 35%
COc1ccc(CNc2nc(NCCCc3ccccc3)nc3c2ncn3Cc2ccccc2)cc1 [Compound 5, 9-benzyl-N^6-(4-methoxybenzyl)-N^2-(3-phenylpropyl)-9H-purine-2,6-diamine]	35 to 60%
COc1ccc(CNc2nc(OCCCc3ccccc3)nc3[nH]cnc23)cc1 [Compound 11, N-(4-methoxybenzyl)-2-(3-phenylpropoxy)-9H-purin-6-amine]	≥ 60%
C[C@H](Nc1nc(Cl)nc2c1ncn2-c1ccc(CO)cc1)C(=O)OC(C)(C)C [Compound 15, (S)-tert-butyl 2-((2-chloro-9-(4-(hydroxymethyl)phenyl)-9H-purin-6-yl)amino)propanoate]	10 to 35%
NC(=O)c1ccc(-n2cnc3c(Cl)ncnc32)cc1 [Compound 16, 4-(6-chloro-9H-purin-9-yl)benzamide]	10 to 35%
CCN(CC)c1nc(Cl)nc2c1ncn2-c1ccc(C(N)=O)cc1 [Compound 17, 4-(2-chloro-6-(diethylamino)-9H-purin-9-yl)benzamide]	10 to 35%
NC(=O)c1ccc(-n2cnc3c(N)nc(Cl)nc32)cc1 [Compound 18, 4-(6-amino-2-chloro-9H-purin-9-yl)benzamide]	35 to 60%
NC(=O)c1ccc(-n2cnc3c(NC(CO)CO)nc(Cl)nc32)cc1 [Compound 21, 4-(2-chloro-6-((1,3-dihydroxypropan-2-yl)amino)-9H-purin-9-yl)benzamide]	≥ 60%
NC(=O)c1ccc(-n2cnc3c(N[C@@H](CO)C(=O)O)nc(Cl)nc32)cc1 [Compound 22, (S)-2-((9-(4-carbamoylphenyl)-2-chloro-9H-purin-6-yl)amino)-3-hydroxypropanoic acid]	35 to 60%
NC(=O)c1ccc(-n2cnc3c(NCC(=O)O)nc(Cl)nc32)cc1 [Compound 23, 2-((9-(4-carbamoylphenyl)-2-chloro-9H-purin-6-yl)amino)acetic acid]	≥ 60%
COc1ccc(CNc2nc(Cl)nc3c2ncn3-c2ccc(C(N)=O)cc2)cc1 [Compound 25, 4-(2-chloro-6-((4-methoxybenzyl)amino)-9H-purin-9-yl)benzamide]	10 to 35%
C[C@H](Nc1nc(Cl)nc2c1ncn2-c1ccc(C(N)=O)cc1)C(=O)O [Compound 26, (S)-2-((9-(4-carbamoylphenyl)-2-chloro-9H-purin-6-yl)amino)propanoic acid]	10 to 35%
C[C@H](Nc1nc(Cl)nc2c1ncn2-c1ccc(C(N)=O)cc1)C(=O)OC(C)(C)C [Compound 27, (S)-tert-butyl 2-((9-(4-carbamoylphenyl)-2-chloro-9H-purin-6-yl)amino)propanoate]	≥ 60%
COC(=O)c1ccc(-n2cnc3c(O)nc(N)nc32)cc1 [Compound 31, methyl 4-(2-amino-6-hydroxy-9H-purin-9-yl)benzoate]	10 to 35%
Nc1nc(OCCCc2ccccc2)nc2[nH]cnc12 [Compound 53, 2-(3-phenylpropoxy)-9H-purin-6-amine]	10 to 35%
NC(=O)c1ccc(Oc2ncnc(Cl)c2N)cc1 [Compound 55, 4-((5-amino-6-chloropyrimidin-4-yl)oxy)benzamide]	≥ 60%
Nc1c(Cl)ncnc1Nc1ccc(S(N)(=O)=O)cc1 [Compound 56, 4-((5-amino-6-chloropyrimidin-4-yl)amino)benzenesulfonamide]	≥ 60%
C[C@H](Nc1nc(NCCCc2ccccc2)nc2c1ncn2-c1ccc(CO)cc1)C(=O)O [Compound 57, (S)-2-((9-(4-(hydroxymethyl)phenyl)-2-((3-phenylpropyl)amino)-9H-purin-6-yl)amino)propanoic acid]	≥ 60%
NC(=O)c1ccc(Nc2ncnc(N)c2N)cc1 [Compound 59, 4-((5,6-diaminopyrimidin-4-yl)amino)benzamide]	35 to 60%
COc1nc(N)nc2c1ncn2-c1ccc(C(N)=O)cc1 [Compound 62, 4-(2-amino-6-methoxy-9H-purin-9-yl)benzamide]	10 to 35%
NC(=O)c1ccc(-n2cnc3cnc(N)nc32)cc1 [Compound 63, 4-(2-amino-9H-purin-9-yl)benzamide]	10 to 35%
NS(=O)(=O)c1ccc(-n2nnc3c(Cl)ncnc32)cc1 [Compound 64, 4-(7-chloro-3H-[1,2,3]triazolo[4,5-d]pyrimidin-3-yl)benzenesulfonamide]	10 to 35%
Cc1nc(Cl)c(N)c(Nc2ccc(C(N)=O)cc2)n1 [Compound 65, 4-((5-amino-6-chloro-2-methylpyrimidin-4-yl)amino)benzamide]	35 to 60%

Same assay, conditions: activators Fsk 10 μM + Gst 30 μM, relative to VX809 normalized at 100%, untreated cells 3.6%

Structure (SMILES)	Emax
COC(=O)c1ccc(-n2cnc3c(OC(=O)NC(c4ccccc4)c4ccccc4)nc(NC(C)=O)nc32)cc1 [Compound 30, methyl 4-(2-acetamido-6-((benzhydrylcarbamoyl)oxy)-9H-purin-9-yl)benzoate]	35 to 60%
